# From patent publication US20080045514A1 (Cytovia, Inc., priority 2006, published 2008)
# Key:
# Type in all cases: cell-based
# [1] = tested on: human Burkitt's lymphoma cell line Namalwa; assay: Inhibition of cell proliferation (GI50), Namalwa; settings: Homo sapiens, Burkitts lymphoma cell; Namalwa cells, 48 h, CellTiter-Glo
# Summary of the method: (§1)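 Proliferation was measured by luminescent ATP assay after cells were incubated with compound for 48 h at 37 °C. GI50 was derived as the concentration giving half the growth seen in drug-free wells, after subtracting the signal recorded 0.5 h post-seeding.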
# [2] = tested on: human colon carcinoma cell line HCT116; assay: Caspase cascade activation (EC50), HCT116; settings: Homo sapiens, HCT-116; HCT116 cells; caspase cascade activation; read-out: caspase potency (EC50) HCT116
# Summary of the method: (§2)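 Test compound (0.016–10 μM final) is incubated with cells for 48 h at 37 °C. Caspase-3-like activity is measured by 3 h room-temperature cleavage of DEVD-R110 in PIPES pH 7.2 lysis buffer, with EC50 from sigmoidal fitting of background-corrected RFU relative to control.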
# [3] = tested on: human lymphoma cell line Raji; assay: Caspase cascade activation (EC50), Raji; settings: Homo sapiens, RAJI cells, read-out: caspase potency (EC50) RAJI
# Summary of the method: as §2
# [4] = tested on: human cancer cell line H1299; assay: Caspase cascade activation (EC50), H1299; settings: NCI-H1299, H1299 cells, read-out: caspase potency (EC50) H1299
# Summary of the method: as §2
# [5] = tested on: human hepatocellular carcinoma cell line SNU398; assay: Caspase cascade activation (EC50), SNU398; settings: Homo sapiens, SNU-398; SNU398 cells; caspase cascade activation; read-out: caspase potency (EC50) SNU398
# Summary of the method: as §2
# [6] = tested on: human B cell lymphoblastoid cell line Ramos; assay: Inhibition of cell proliferation (GI50), Ramos; settings: Homo sapiens; Ramos cells, 48 h, CellTiter-Glo
# Summary of the method: as §1
# [7] = tested on: human breast cancer cell line T-47D; assay: Caspase cascade activation (EC50), T-47D; settings: Homo sapiens; T47D cells; caspase cascade activation; read-out: caspase potency (EC50) T47D
# Summary of the method: as §2
# [8] = tested on: human colon carcinoma cell line HCT116; assay: Inhibition of cell proliferation (GI50), HCT116; settings: Homo sapiens; HCT 116 cells, 48 h, CellTiter-Glo
# Summary of the method: as §1
# [9] = tested on: human leukemia cell line K562; assay: Inhibition of cell proliferation (GI50), K562; settings: Homo sapiens; K562 cells, 48 h, CellTiter-Glo
# Summary of the method: as §1
# [10] = tested on: human lymphoma cell line Raji; assay: Inhibition of cell proliferation (GI50), Raji; settings: Homo sapiens; Raji cells, 48 h, CellTiter-Glo
# Summary of the method: as §1
# [11] = tested on: human breast cancer cell line T-47D; assay: Inhibition of cell proliferation (GI50), T47D; settings: Homo sapiens; T47D cells, 48 h, CellTiter-Glo
# Summary of the method: as §1
# [12] = tested on: human lung cancer cell line H1299; assay: Inhibition of cell proliferation (GI50), H1299; settings: NCI-H1299, H1299 cells, 48 h, CellTiter-Glo
# Method: Human breast cancer cell lines T-47D, human hepatocellular carcinoma cell line SNU398, human colon carcinoma cell line HCT116, human lung cancer cell line H1299, human leukemia cell line K562, human lymphoma cell line Raji, human B cell lymphoblastoid cell line Ramos, and human Burkitt's lymphoma cell line Namalwa were grown and harvested as in Example 100. An aliquot of […] of cells (4.4×10^4 cells/mL) was added to a well of a 96-well microtiter plate containing 5 μL of a 10% DMSO in RPMI-1640 media solution containing 10 nM to 100 μM of 3-(2-chlorophenyl)-6-(3,4-methylenedioxyphenyl)-7H-[1,2,4]triazolo[3,4-b][1,3,4]thiadiazine (1 nM to 10 μM final). An aliquot of 45 μL of cells was added to a well of a 96-well microtiter plate containing 5 μL of a 10% DMSO in RPMI-1640 media solution without compound as the control sample for maximal cell proliferation (LMax). The samples were mixed by agitation and then incubated at 37° C. for 48 h in a 5% CO2-95% humidity incubator. After incubation, the samples were removed from the incubator and 25 μL of CellTiter-Glo™ reagent (Promega) was added. The samples were mixed by agitation and incubated at room temperature for 10-15 min. Plates were then read using a luminescent plate reader (Model SPECTRAfluor Plus, Tecan) to give Ltest values.
# The samples were mixed by agitation and then incubated at 37° C. for 0.5 h in a 5% CO2-95% humidity incubator. After incubation, the samples were removed from the incubator and 25 μL of CellTiter-Glo™ reagent (Promega) was added. The samples were mixed by agitation and incubated at […] 10-15 min at room temperature in a 5% CO2-95% humidity incubator. Fluorescence was read as above, (LStart) defining luminescence for initial cell number used as baseline in GI50 determinations.
# Calculation: GI50 (dose for 50% inhibition of cell proliferation) is the concentration where [(Ltest−LStart)/(LMax−LStart)]=0.5.
# [13] = tested on: human B cell lymphoblastoid cell line Ramos; assay: Caspase cascade activation (EC50), Ramos; settings: Homo sapiens, RAMOS cells, read-out: caspase potency (EC50) RAMOS
# Summary of the method: as §2
# [14] = tested on: human Burkitt's lymphoma cell line Namalwa; assay: Caspase cascade activation (EC50), Namalwa; settings: Homo sapiens, Burkitts lymphoma cell; Namalwa cells; caspase cascade activation; read-out: caspase potency (EC50) Namalwa
# Summary of the method: as §2
# [15] = tested on: human hepatocellular carcinoma cell line SNU398; assay: Inhibition of cell proliferation (GI50), SNU398; settings: Homo sapiens; SNU 398 cells, 48 h, CellTiter-Glo
# Summary of the method: as §1
Compound,GI50 [1],EC50 [2],EC50 [3],EC50 [4],EC50 [5],GI50 [6],EC50 [7],GI50 [8],GI50 [9],GI50 [10],GI50 [11],GI50 [12],EC50 [13],EC50 [14],GI50 [15]
"COc1ccc(C2=Nn3c(nnc3-c3ccc(Cl)cc3)SC2)cc1 [D, 3-(4-Chlorophenyl)-6-(4-methoxyphenyl)-7H-[1,2,4]triazolo[3,4-b][1,3,4]thiadiazine]",1500 nM,130 nM,84 nM,142 nM,82 nM,21 nM,315 nM,2120 nM,31 nM,1500 nM,144 nM,42 nM,63 nM,58 nM,–
"Cc1ccccc1-c1nnc2n1N=C(c1ccc3c(c1)OCO3)CS2 [Example M, 3-(2-Methylphenyl)-6-(3,4-methylenedioxyphenyl)-7H-[1,2,4]triazolo[3,4-b][1,3,4]thiadiazine]",122 nM,317 nM,399 nM,420 nM,254 nM,164 nM,282 nM,825 nM,239 nM,2220 nM,124 nM,214 nM,452 nM,144 nM,–
"Clc1ccccc1-c1nnc2n1N=C(c1ccc3c(c1)OCO3)CS2 [Example P, 3-(2-chlorophenyl)-6-(3,4-methylenedioxyphenyl)-7H-[1,2,4]triazolo[3,4-b][1,3,4]thiadiazine]",472 nM,231 nM,339 nM,370 nM,189 nM,118 nM,235 nM,884 nM,214 nM,426 nM,175 nM,202 nM,289 nM,123 nM,–
"COc1ccc(C2=Nn3c(nnc3-c3ccccc3C)SC2)cc1OC [K, 3-(2-Methylphenyl)-6-(3,4-dimethoxyphenyl)-7H-[1,2,4]triazolo[3,4-b][1,3,4]thiadiazine]",–,578 nM,479 nM,697 nM,316 nM,–,5130 nM,–,–,–,2620 nM,667 nM,272 nM,267 nM,–
"COc1ccc(C2=Nn3c(nnc3-c3cc(OC)c(OC)c(OC)c3)SC2)cc1OC [Example L1, 3-(3,4,5-Trimethoxyphenyl)-6-(3,4-dimethoxyphenyl)-7H-[1,2,4]triazolo[3,4-b][1,3,4]thiadiazine]",243 nM,178 nM,180 nM,573 nM,132 nM,76 nM,499 nM,200 nM,163 nM,150 nM,200 nM,339 nM,130 nM,122 nM,147 nM
"COc1ccccc1-c1nnc2n1N=C(c1ccc(Br)cc1)CS2 [W, 3-(2-Methoxyphenyl)-6-(4-bromophenyl)-7H-[1,2,4]triazolo[3,4-b][1,3,4]thiadiazine]",314 nM,243 nM,322 nM,552 nM,164 nM,141 nM,313 nM,489 nM,178 nM,299 nM,135 nM,161 nM,175 nM,–,–
"CCOc1ccc(C2=Nn3c(nnc3-c3ccc(Cl)cc3)SC2)cc1 [F, 3-(4-Chlorophenyl)-6-(4-ethoxyphenyl)-7H-[1,2,4]triazolo[3,4-b][1,3,4]thiadiazine]",120 nM,141 nM,155 nM,275 nM,89 nM,15 nM,561 nM,419 nM,47 nM,136 nM,151 nM,58 nM,106 nM,69 nM,–
"CCOc1cccc(-c2nnc3n2N=C(c2ccc(O)c(O)c2)CS3)c1 [Example C1, 3-(3-Ethoxyphenyl)-6-(3,4-dihydroxyphenyl)-7H-[1,2,4]triazolo[3,4-b][1,3,4]thiadiazine]",2870 nM,> 10000 nM,706 nM,1310 nM,1220 nM,1390 nM,1320 nM,2340 nM,453 nM,2890 nM,1370 nM,1010 nM,925 nM,–,–
"COc1ccc(C2=Nn3c(nnc3-c3ccccc3OC)SC2)cc1OC [Example K1, 3-(2-Methoxyphenyl)-6-(3,4-dimethoxyphenyl)-7H-[1,2,4]triazolo[3,4-b][1,3,4]thiadiazine]",38 nM,134 nM,137 nM,374 nM,70 nM,41 nM,506 nM,253 nM,99 nM,39 nM,461 nM,191 nM,88 nM,106 nM,–
"Cc1cccc(-c2nnc3n2N=C(c2ccc4c(c2)OCO4)CS3)c1 [Example T, 3-(3-Methylphenyl)-6-(3,4-methylenedioxyphenyl)-7H-[1,2,4]triazolo[3,4-b][1,3,4]thiadiazine]",–,471 nM,221 nM,1230 nM,243 nM,–,345 nM,–,–,–,375 nM,314 nM,262 nM,261 nM,–
"COc1ccc(C2=Nn3c(nnc3-c3ccc(Cl)cc3Cl)SC2)cc1OC [Example G1, 3-(2,4-Dichlorophenyl)-6-(3,4-dimethoxyphenyl)-7H-[1,2,4]triazolo[3,4-b][1,3,4]thiadiazine]",13 nM,231 nM,101 nM,277 nM,75 nM,45 nM,505 nM,81 nM,32 nM,90 nM,130 nM,48 nM,107 nM,78 nM,60 nM
"Clc1ccc(-c2nnc3n2N=C(c2ccc4c(c2)OCO4)CS3)cc1 [G, 3-(4-Chlorophenyl)-6-(3,4-methylenedioxyphenyl)-7H-[1,2,4]triazolo[3,4-b][1,3,4]thiadiazine]",–,849 nM,393 nM,1420 nM,273 nM,–,513 nM,–,–,–,97 nM,307 nM,481 nM,265 nM,–
